According to patent publication US11129840B2, “Methods for identifying novel dosing regimens” (Zavante Therapeutics, Inc., priority 2017, dated 2021):

Key:
[1] = system: Carbapenem-resistant Enterobacteriaceae (CRE) clinical isolates; assay: Susceptibility testing, CRE clinical isolates; format: cell-based; details: 50 isolates
[2] = system: ESBL-producing K. pneumoniae isolate; assay: Time-kill kinetic analysis; format: cell-based, Klebsiella pneumoniae; details: CAZ ¼ and 1×MIC, by 4-8 h
Protocol: Broth microdilution for FOS (Mueller-Hinton broth supplemented with 25 μg/mL glucose-6-phosphate) and comparators was performed before performing TKK. TKK employed MIC multiples for FOS, and ¼ and 1×MIC of select comparators, and combinations of FOS and comparator. TKK were sampled for colony counts at T0, T2, T4, T8 and T24 hours (h). Two Klebsiella pneumoniae isolates (one KPC and one ESBL), two Pseudomonas aeruginosa isolates (non-MDR), and one Acinetobacter baumannii isolate (MDR) were tested.

Pa isolates = assay: Time kill assays against 12 isolates; format: cell-based, Pseudomonas aeruginosa; details: tested alone, FOS-S isolates; >3-log10 reduction at 12 and/or 24 hours
Protocol: Forty-three Pa isolates (recovered from unique patients) were selected for testing. […] Interactions between FOS and other agents were determined by double disc testing on Mueller Hinton agar. Discs containing 300 μg FOS and 50 G6P were used, along with commercially available Kirby Bauer discs for other agents. Intravenous FOS MIC breakpoints are not established. […] Time kill assays against 12 isolates were performed for FOS, CAZ-AVI, CFT-TAZ and PIP-TAZ (alone, and each agent in combination with FOS) at the respective MIC (or breakpoint MIC for resistant isolates). Bactericidal activity during time-kills was defined as >3-log10 reduction at 12 and/or 24 hours, compared to starting inoculum. Synergy during time-kills was defined as >2-log10 reduction at 12 and/or 24 hours, compared to best single agent alone.

Compound	Non-susceptiblity rate [1]	decrease in CFU [2]	% of isolates with bactericidal activity (Pa isolates)
CC(C)(O/N=C(\C(=O)N[C@@H]1C(=O)N2C(C(=O)[O-])=C(C[n+]3ccccc3)CS[C@H]12)c1csc(N)n1)C(=O)O [CAZ, ceftazidime]	92%	0.9-2.1 log10 CFU	
C[C@@H](O)[C@H]1C(=O)N2C(C(=O)O)=C(SCCN=CN)C[C@H]12 [IMP, Imipenem]	86%		
C[C@@H](O)[C@H]1C(=O)N2C(C(=O)O)=C(S[C@@H]3CN[C@H](C(=O)N(C)C)C3)[C@H](C)[C@H]12 [MEM, Meropenem]	82%		
Gentamicin	54%		
Piperacillin-tazobactam [PTZ]	96%		8%
ceftazidime-avibactam [C-A]	6%		8%
ceftolozane-tazobactam [C-T]	43%		8%
